Source: PMC10573254, “Development of Novel Class of Phenylpyrazolo[3,4-d]pyrimidine-Based Analogs with Potent Anticancer Activity and Multitarget Enzyme Inhibition Supported by Docking Studies” (International Journal of Molecular Sciences, 2023)
Like-named read-outs stand apart in the source and are kept apart here.

What was measured:
[1] = system: HePG-2; test: MTT cytotoxicity assay, HePG-2; format: cell-based; conditions: Homo sapiens, HepG2
Description: (§1) The cytotoxic activity was assessed using the 3-(4,5-dimethylthiazol-2-yl)-2,5-diphenyl tetrazolium bromide (MTT) colorimetric assay, as reported previously. Doxorubicin was used as a reference standard, and DMSO was used as a negative control. Briefly, the designated cell lines were cultured at a concentration of 5 × 10^4 cell/well in 96-well plates. The cells were incubated for 24 h under optimum conditions. Following this, the designated molecules were introduced (in serial dilutions from 0 to 50 μg/mL), and the cells were incubated for an additional 24 h. Following this, the media were withdrawn, and 100 μL of fresh medium was added. Then, 10 µL of the 12 mM MTT stock solution was administered to each well. The plates were then incubated for 4 h. […] An 85-μL aliquot of the media was removed from the wells, and 50 µL of DMSO was added to each well and mixed thoroughly with the pipette and incubated at 37 °C for 10 min. Then, the optical density was measured at 590 nm with the microplate reader (Sunrise, TECAN, Inc., Morrisville, NC, USA).

[2] = system: MCF-7; test: MTT cytotoxicity assay, MCF-7; format: cell-based; conditions: Homo sapiens, MCF7; MTT, breast cancer cells; read-out: IC50 MCF-7
Description: (§2) The cytotoxic activity was assessed using the 3-(4,5-dimethylthiazol-2-yl)-2,5-diphenyl tetrazolium bromide (MTT) colorimetric assay, as reported previously [62, 63]. […] Briefly, the designated cell lines were cultured at a concentration of 5 × 10^4 cell/well in 96-well plates. The cells were incubated for 24 h under optimum conditions. Following this, the designated molecules were introduced (in serial dilutions from 0 to 50 μg/mL), and the cells were incubated for an additional 24 h. Following this, the media were withdrawn, and 100 μL of fresh medium was added. Then, 10 µL of the 12 mM MTT stock solution was administered to each well. The plates were then incubated for 4 h. Then, the cells were exposed to different compounds at the desired concentrations (0.01, 0.1, 1, 10, and 100 µM) or to 1% dimethyl sulfoxide (DMSO) for 48 and 72 h. […] Then, the optical density was measured at 590 nm with the microplate reader (Sunrise, TECAN, Inc., Morrisville, NC, USA).

[3] = system: HCT-116; test: MTT cytotoxicity assay, HCT-116; format: cell-based; conditions: Homo sapiens, HCT-116, read-out: IC50 HCT-116; MTT, colon cancer cells
Description: as §2

[4] = system: WI-38; test: MTT assay on normal cell line WI-38; format: cell-based; conditions: Homo sapiens, WI-38, MTT, normal human diploid fibroblasts
Description: According to our design, the tested compounds are classified into four categories based on the length and the chemotype of the spacer (Figure 3). In the first category, we used monosubstituted hydrazone linker. […] The second category is represented by […] hydrazone linker.
as §1

[5] = target: T1, Topo-II (Homo sapiens, UniProt Q02880); test: In vitro Topo II inhibitory assay; format: biochemical
T1 construct: purchased
T1 sequence (Q02880 2-1626): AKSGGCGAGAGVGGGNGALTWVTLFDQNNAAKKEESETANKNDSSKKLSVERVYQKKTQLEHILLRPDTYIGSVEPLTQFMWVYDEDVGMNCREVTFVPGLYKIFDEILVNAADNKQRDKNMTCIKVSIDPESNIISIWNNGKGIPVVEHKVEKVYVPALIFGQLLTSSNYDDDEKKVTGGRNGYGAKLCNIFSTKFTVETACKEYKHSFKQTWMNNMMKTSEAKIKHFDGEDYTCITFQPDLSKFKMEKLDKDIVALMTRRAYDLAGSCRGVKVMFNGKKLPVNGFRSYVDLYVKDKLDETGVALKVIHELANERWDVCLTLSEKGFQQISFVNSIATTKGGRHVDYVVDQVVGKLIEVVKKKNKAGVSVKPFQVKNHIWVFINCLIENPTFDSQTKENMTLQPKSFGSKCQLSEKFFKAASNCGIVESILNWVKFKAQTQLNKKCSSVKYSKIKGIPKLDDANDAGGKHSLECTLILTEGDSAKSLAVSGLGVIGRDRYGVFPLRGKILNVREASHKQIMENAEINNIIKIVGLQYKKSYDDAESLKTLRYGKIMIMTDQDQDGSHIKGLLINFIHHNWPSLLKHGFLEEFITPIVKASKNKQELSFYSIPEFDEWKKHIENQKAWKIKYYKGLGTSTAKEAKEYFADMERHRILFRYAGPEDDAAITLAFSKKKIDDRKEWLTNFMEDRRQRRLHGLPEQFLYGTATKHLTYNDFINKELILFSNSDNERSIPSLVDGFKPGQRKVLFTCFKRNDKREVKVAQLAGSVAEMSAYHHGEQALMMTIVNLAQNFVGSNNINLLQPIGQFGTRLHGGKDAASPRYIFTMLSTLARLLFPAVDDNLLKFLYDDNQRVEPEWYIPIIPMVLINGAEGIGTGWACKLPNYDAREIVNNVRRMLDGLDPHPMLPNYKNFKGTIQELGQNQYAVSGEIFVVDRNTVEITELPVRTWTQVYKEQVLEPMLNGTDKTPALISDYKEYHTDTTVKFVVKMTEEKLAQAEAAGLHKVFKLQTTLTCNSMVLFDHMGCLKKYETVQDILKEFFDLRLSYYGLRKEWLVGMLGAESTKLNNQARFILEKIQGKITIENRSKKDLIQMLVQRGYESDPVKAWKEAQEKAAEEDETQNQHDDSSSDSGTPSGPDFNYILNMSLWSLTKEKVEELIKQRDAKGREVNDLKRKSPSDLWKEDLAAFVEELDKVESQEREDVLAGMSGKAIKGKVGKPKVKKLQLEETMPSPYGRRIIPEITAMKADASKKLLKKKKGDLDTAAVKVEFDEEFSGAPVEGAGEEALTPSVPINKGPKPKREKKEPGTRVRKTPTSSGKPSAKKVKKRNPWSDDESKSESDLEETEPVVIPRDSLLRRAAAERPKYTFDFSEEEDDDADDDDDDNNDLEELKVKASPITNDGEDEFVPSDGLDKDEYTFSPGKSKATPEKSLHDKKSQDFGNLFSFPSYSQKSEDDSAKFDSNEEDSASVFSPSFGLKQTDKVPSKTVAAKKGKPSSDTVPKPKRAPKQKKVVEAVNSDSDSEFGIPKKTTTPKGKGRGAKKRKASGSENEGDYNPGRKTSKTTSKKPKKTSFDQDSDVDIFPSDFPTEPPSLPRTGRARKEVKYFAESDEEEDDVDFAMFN
Description: Curve fitting was performed using GraphPad Prism.
(1 picture or pasted object on this page, not shown here)

[6] = MTT, liver cancer cells, read-out: IC50 HePG-2

SMILES | IC50 [1, 6] [µM] | IC50 [2] [µM] | IC50 [3] [µM] | melting point [°C] | further results
Cc1nc(NN=Cc2ccccc2)c2cnn(-c3ccccc3)c2n1 [Compound 5a, 4-(2-Benzylidenehydrazinyl)-6-methyl-1-phenyl-1H-pyrazolo[3,4-d]pyrimidine] | 15.1 ± 1.2 | 21.1 ± 1.5 | 11.7 ± 0.9 | 160 to 162 | –
Cc1nc(NN=Cc2ccc(Cl)cc2)c2cnn(-c3ccccc3)c2n1 [Compound 5c, 4-(2-(4-Chlorobenzylidene)hydrazinyl)-6-methyl-1-phenyl-1H-pyrazolo[3,4-d]pyrimidine] | 83.7 ± 4.4 | 66.6 ± 3.8 | 39.5 ± 2.6 | 233 to 235 | –
COc1ccc(C=NNc2nc(C)nc3c2cnn3-c2ccccc2)cc1 [Compound 5d] | 18.3 ± 1.5 | 19.4 ± 1.3 | 9.87 ± 0.7 | 227 to 229 | –
COc1ccccc1C=NNc1nc(C)nc2c1cnn2-c1ccccc1 [Compound 5e, 4-(2-(2-Methoxybenzylidene)hydrazineyl)-6-methyl-1-phenyl-1H-pyrazolo[3,4-d]pyrimidine] | 13.8 ± 1 | 16.1 ± 1.1 | 8.15 ± 0.5 | 220 to 222 | –
Cc1nc(NN=Cc2ccc([N+](=O)[O-])cc2)c2cnn(-c3ccccc3)c2n1 [Compound 5f, 6-Methyl-4-(2-(4-nitrobenzylidene)hydrazineyl)-1-phenyl-1H-pyrazolo[3,4-d]pyrimidine] | > 100 | > 100 | 89.7 ± 4.8 | 250 to 252 | –
Cc1nc(NN=Cc2c(Cl)cccc2Cl)c2cnn(-c3ccccc3)c2n1 [Compound 5g, 4-(2-(2,6-Dichlorobenzylidene)hydrazineyl)-6-methyl-1-phenyl-1H-pyrazolo[3,4-d]pyrimidine] | > 100 | > 100 | > 100 | 255 to 257 | –
Cc1nc(NN=CC=Cc2ccccc2)c2cnn(-c3ccccc3)c2n1 [Compound 5h, 6-Methyl-1-phenyl-4-(2-(-3-phenylallylidene)hydrazineyl)-1H-pyrazolo[3,4-d]pyrimidine] | > 100 | > 100 | 76.8 ± 4.1 | 241 to 243 | –
CC(=NNc1nc(C)nc2c1cnn2-c1ccccc1)c1ccc(N)cc1 [Compound 5j, 4-(1-(2-(6-Methyl-1-phenyl-1H-pyrazolo[3,4-d]pyrimidin-4-yl)hydrazineylidene)ethyl)aniline] | 44.3 ± 2.9 | 36 ± 2.4 | 21.5 ± 1.5 | 221 to 223 | –
COc1ccc(C(C)=NNc2nc(C)nc3c2cnn3-c2ccccc2)cc1 [Compound 5k, 4-(2-(1-(4-Methoxyphenyl)ethylidene)hydrazinyl)-6-methyl-1-phenyl-1H-pyrazolo[3,4-d]pyrimidine] | 91.6 ± 5.1 | 88.3 ± 4.7 | 78 ± 4.2 | 235 to 237 | –
CC(=NNc1nc(C)nc2c1cnn2-c1ccccc1)c1ccc(Cl)cc1Br [Compound 5l, 4-(2-(1-(2-Bromo-4-chlorophenyl)ethylidene)hydrazineyl)-6-methyl-1-phenyl-1H-pyrazolo[3,4-d] pyrimidine] | 17.1 ± 1.3 | 29.2 ± 1.8 | 14.6 ± 1.1 | 257 to 259 | –
Cc1nc2c(cnn2-c2ccccc2)c2nncn12 [Compound 6a, 5-Methyl-7-phenyl-7H-pyrazolo[4,3-e][1,2,4]triazolo[4,3-c]pyrimidine] | 37.5 ± 2.7 | 49.6 ± 3.1 | 34.6 ± 2.2 | 250 to 252 | –
Cc1nc2c(cnn2-c2ccccc2)c2nnc(C(F)(F)F)n12 [Compound 6b, 5-Methyl-7-phenyl-3-(trifluoromethyl)-7H-pyrazolo[4,3-e][1,2,4]triazolo[4,3-c]pyrimidine] | 25.2 ± 2 | 39.1 ± 2.5 | 26.1 ± 1.8 | 267 to 269 | –
Cc1nc2c(cnn2-c2ccccc2)c2nnc(C(Cl)(Cl)Cl)n12 [Compound 6c, 5-Methyl-7-phenyl-3-(trichloromethyl)-7H-pyrazolo[4,3-e][1,2,4]triazolo[4,3-c]pyrimidine] | 56.2 ± 3.5 | 54.2 ± 3.4 | 37.2 ± 2.4 | 250 to 252 | –
CC(=O)CC(C)=Nc1nc(C)nc2c1cnn2-c1ccccc1 [Compound 6d, 4-((6-Methyl-1-phenyl-1H-pyrazolo[3,4-d]pyrimidin-4-yl)imino)pentan-2-one] | 89.2 ± 4.7 | 84.6 ± 4.6 | 93.4 ± 5.2 | 240 to 242 | –
Cc1nc(NN2C(=O)CCC2=O)c2cnn(-c3ccccc3)c2n1 [Compound 7, 1-((6-Methyl-1-phenyl-1H-pyrazolo[3,4-d]pyrimidin-4-yl)amino)pyrrolidine-2,5-dione] | 87.2 ± 4.5 | 81 ± 4.6 | 73.5 ± 3.8 | 280 to 282 | –
Cc1nc(NN2C(=O)C=CC2=O)c2cnn(-c3ccccc3)c2n1 [Compound 8, 1-((6-Methyl-1-phenyl-1H-pyrazolo[3,4-d]pyrimidin-4-yl)amino)-1H-pyrrole-2,5-dione] | 78.5 ± 4.3 | 79.5 ± 4.4 | 66.3 ± 3.5 | – | –
CCNC(=S)NNc1nc(C)nc2c1cnn2-c1ccccc1 [Compound 9a, N-Ethyl-2-(6-methyl-1-phenyl-1H-pyrazolo[3,4-d]pyrimidin-4-yl)hydrazinecarbothioamide] | 5.97 ± 0.3 | 7.61 ± 0.4 | 2.96 ± 0.1 | 278 to 280 | –
CCCNC(=S)NNc1nc(C)nc2c1cnn2-c1ccccc1 [Compound 9b, 2-(6-Methyl-1-phenyl-1H-pyrazolo[3,4-d]pyrimidin-4-yl)-N-propylhydrazinecarbothioamide] | 23.9 ± 1.8 | 34.2 ± 2 | 17.6 ± 1.3 | – | –
CCCCNC(=S)NNc1nc(C)nc2c1cnn2-c1ccccc1 [Compound 9c, N-Butyl-2-(6-methyl-1-phenyl-1H-pyrazolo[3,4-d]pyrimidin-4-yl)hydrazinecarbothioamide] | 20.3 ± 1.6 | 31.4 ± 1.9 | 16.6 ± 1.2 | 270 to 272 | –
C=CNC(=S)NNc1nc(C)nc2c1cnn2-c1ccccc1 [Compound 9d, 2-(6-Methyl-1-phenyl-1H-pyrazolo[3,4-d]pyrimidin-4-yl)-N-vinylhydrazine-1-carbothioamide] | 32.6 ± 2.4 | 35.2 ± 2.2 | 19.7 ± 1.4 | 268 to 270 | –
COc1cccc2c1C(=O)c1c(O)c3c(c(O)c1C2=O)C[C@@](O)(C(=O)CO)C[C@@H]3O[C@H]1C[C@H](N)[C@H](O)[C@H](C)O1 [DOX, Doxorubicin, reference compound] | 4.5 ± 0.2 | – | – | – | IC50 ([1]; 24 h incubation, read-out: IC50 HePG-2 24 h): 4.5 ± 0.2 µM; IC50 ([1]; 48 h incubation, read-out: IC50 HePG-2 48 h): 3.24 ± 0.2 µM; IC50 ([1]; 72 h incubation, read-out: IC50 HePG-2 72 h): 1.07 ± 0.1 µM; IC50 [4]: 10.6 ± 0.47 µM
COc1cc([C@@H]2c3cc4c(cc3[C@@H](O[C@@H]3O[C@@H]5CO[C@@H](C)O[C@H]5[C@H](O)[C@H]3O)[C@H]3COC(=O)[C@H]23)OCO4)cc(OC)c1O [Etoposide, reference compound] | – | – | – | – | TOPO IiB %inh at conc 12.5 ([5]; conc 12.5, unit not given): 7.5%; TOPO IiB %inh at conc 25 ([5]; conc 25, unit not given): 20%; TOPO IiB %inh at conc 50 ([5]; conc 50, unit not given): 39%; TOPO IiB %inh at conc 100 ([5]; conc 100, unit not given): 69%
